Measurements: ChEMBL document CHEMBL3745676, “Alkylamino derivatives of N-benzylpyrazine-2-carboxamide: synthesis and antimycobacterial evaluation” (Medchemcomm, 2015)
In brackets after ≈: the same amount, converted by molar mass.

Legend:
Type in all cases: functional
[1] = tested on: Mycobacterium tuberculosis; test: Antimycobacterial activity against multi-drug resistant Mycobacterium tuberculosis 9449/2007 after 14 days by microplate dilution method; conditions: 9449/2007, 336 h
[2] = tested on: Mycobacterium tuberculosis; test: Antimycobacterial activity against multi-drug resistant Mycobacterium tuberculosis Praha 131 after 21 days by microplate dilution method; conditions: Praha 131, 504 h
[3] = tested on: Mycobacterium tuberculosis; test: Antimycobacterial activity against multi-drug resistant Mycobacterium tuberculosis Praha 1 after 21 days by microplate dilution method; conditions: Praha 1, 504 h
[4] = tested on: Mycobacterium tuberculosis; test: Antimycobacterial activity against multi-drug resistant Mycobacterium tuberculosis 7357/1998 after 21 days by microplate dilution method; conditions: 7357/1998, 504 h
[5] = tested on: Mycobacterium tuberculosis; test: Antimycobacterial activity against multi-drug resistant Mycobacterium tuberculosis 9449/2007 after 21 days by microplate dilution method; conditions: 9449/2007, 504 h
[6] = tested on: Mycobacterium tuberculosis; test: Antimycobacterial activity against multi-drug resistant Mycobacterium tuberculosis Praha 4 after 21 days by microplate dilution method; conditions: Praha 4, 504 h
[7] = tested on: Mycobacterium tuberculosis; test: Antimycobacterial activity against multi-drug resistant Mycobacterium tuberculosis Praha 131 after 14 days by microplate dilution method; conditions: Praha 131, 336 h
[8] = tested on: Mycobacterium tuberculosis; test: Antimycobacterial activity against multi-drug resistant Mycobacterium tuberculosis 7357/1998 after 14 days by microplate dilution method; conditions: 7357/1998, 336 h
[9] = tested on: Mycobacterium tuberculosis; test: Antimycobacterial activity against multi-drug resistant Mycobacterium tuberculosis 8666/2010 after 21 days by microplate dilution method; conditions: 8666/2010, 504 h
[10] = tested on: Mycobacterium tuberculosis; test: Antimycobacterial activity against multi-drug resistant Mycobacterium tuberculosis 8666/2010 after 14 days by microplate dilution method; conditions: 8666/2010, 336 h
[11] = tested on: Mycobacterium tuberculosis; test: Antimycobacterial activity against multi-drug resistant Mycobacterium tuberculosis 234/2005 after 14 days by microplate dilution method; conditions: 234/2005, 336 h
[12] = tested on: Mycobacterium tuberculosis; test: Antimycobacterial activity against multi-drug resistant Mycobacterium tuberculosis Praha 4 after 14 days by microplate dilution method; conditions: Praha 4, 336 h
[13] = tested on: Mycobacterium tuberculosis; test: Antimycobacterial activity against multi-drug resistant Mycobacterium tuberculosis Praha 1 after 14 days by microplate dilution method; conditions: Praha 1, 336 h
[14] = tested on: Mycobacterium tuberculosis; test: Antimycobacterial activity against multi-drug resistant Mycobacterium tuberculosis 234/2005 after 21 days by microplate dilution method; conditions: 234/2005, 504 h

Row | SMILES | MIC [1] [µM] | MIC [2] [µM] | MIC [3] [µM] | MIC [4] [µM] | MIC [5] [µM] | MIC [6] [µM] | MIC [7] [µM] | MIC [8] [µM] | MIC [9] [µM] | MIC [10] [µM] | MIC [11] [µM] | MIC [12] [µM] | MIC [13] [µM] | MIC [14] [µM]
1 | CCCCNc1cnc(C(=O)NCc2ccccc2)cn1 | 62.5 (≈ 17.8 µg/mL) | 125 (≈ 35.5 µg/mL) | 250 (≈ 71.1 µg/mL) | 125 (≈ 35.5 µg/mL) | 125 (≈ 35.5 µg/mL) | 125 (≈ 35.5 µg/mL) | 62.5 (≈ 17.8 µg/mL) | 125 (≈ 35.5 µg/mL) | 250 (≈ 71.1 µg/mL) | 125 (≈ 35.5 µg/mL) | 125 (≈ 35.5 µg/mL) | 62.5 (≈ 17.8 µg/mL) | 125 (≈ 35.5 µg/mL) | 250 (≈ 71.1 µg/mL)
2 | CCCCCCCCNc1nccnc1C(=O)NCc1ccccc1 | > 1000 | > 1000 | > 1000 | > 1000 | > 1000 | > 1000 | > 1000 | > 1000 | > 1000 | > 1000 | > 1000 | > 1000 | > 1000 | > 1000
3 | CCCCNc1nccnc1C(=O)NCc1ccccc1 | 125 (≈ 35.5 µg/mL) | 250 (≈ 71.1 µg/mL) | 125 (≈ 35.5 µg/mL) | 250 (≈ 71.1 µg/mL) | 250 (≈ 71.1 µg/mL) | 125 (≈ 35.5 µg/mL) | 125 (≈ 35.5 µg/mL) | 125 (≈ 35.5 µg/mL) | 250 (≈ 71.1 µg/mL) | 125 (≈ 35.5 µg/mL) | 125 (≈ 35.5 µg/mL) | 125 (≈ 35.5 µg/mL) | 125 (≈ 35.5 µg/mL) | 250 (≈ 71.1 µg/mL)
4 | CCCCCCCNc1nccnc1C(=O)NCc1ccccc1 | > 1000 | > 1000 | > 1000 | 1000 (≈ 326 µg/mL) | > 1000 | > 1000 | 1000 (≈ 326 µg/mL) | 1000 (≈ 326 µg/mL) | > 1000 | 1000 (≈ 326 µg/mL) | 1000 (≈ 326 µg/mL) | > 1000 | 1000 (≈ 326 µg/mL) | > 1000
5 | CCCCCNc1cncc(C(=O)NCc2ccccc2)n1 | 32 (≈ 9.55 µg/mL) | 62.5 (≈ 18.6 µg/mL) | 62.5 (≈ 18.6 µg/mL) | 62.5 (≈ 18.6 µg/mL) | 62.5 (≈ 18.6 µg/mL) | 62.5 (≈ 18.6 µg/mL) | 32 (≈ 9.55 µg/mL) | 32 (≈ 9.55 µg/mL) | 62.5 (≈ 18.6 µg/mL) | 62.5 (≈ 18.6 µg/mL) | 62.5 (≈ 18.6 µg/mL) | 32 (≈ 9.55 µg/mL) | 62.5 (≈ 18.6 µg/mL) | 62.5 (≈ 18.6 µg/mL)
6 | CCCCCCNc1cncc(C(=O)NCc2ccccc2)n1 | 32 (≈ 10 µg/mL) | 32 (≈ 10 µg/mL) | 32 (≈ 10 µg/mL) | 32 (≈ 10 µg/mL) | 32 (≈ 10 µg/mL) | 32 (≈ 10 µg/mL) | 16 (≈ 5 µg/mL) | 32 (≈ 10 µg/mL) | 32 (≈ 10 µg/mL) | 16 (≈ 5 µg/mL) | 16 (≈ 5 µg/mL) | 32 (≈ 10 µg/mL) | 16 (≈ 5 µg/mL) | 32 (≈ 10 µg/mL)
7 | CCCCNc1cncc(C(=O)NCc2ccccc2)n1 | 62.5 (≈ 17.8 µg/mL) | 62.5 (≈ 17.8 µg/mL) | 62.5 (≈ 17.8 µg/mL) | 62.5 (≈ 17.8 µg/mL) | 125 (≈ 35.5 µg/mL) | 62.5 (≈ 17.8 µg/mL) | 32 (≈ 9.1 µg/mL) | 62.5 (≈ 17.8 µg/mL) | 62.5 (≈ 17.8 µg/mL) | 62.5 (≈ 17.8 µg/mL) | 62.5 (≈ 17.8 µg/mL) | 32 (≈ 9.1 µg/mL) | 62.5 (≈ 17.8 µg/mL) | 62.5 (≈ 17.8 µg/mL)
8 | CCCCCCCCNc1cnc(C(=O)NCc2ccccc2)cn1 | 8 (≈ 2.72 µg/mL) | 4 (≈ 1.36 µg/mL) | 8 (≈ 2.72 µg/mL) | 8 (≈ 2.72 µg/mL) | 8 (≈ 2.72 µg/mL) | 8 (≈ 2.72 µg/mL) | 4 (≈ 1.36 µg/mL) | 8 (≈ 2.72 µg/mL) | 8 (≈ 2.72 µg/mL) | 4 (≈ 1.36 µg/mL) | 4 (≈ 1.36 µg/mL) | 8 (≈ 2.72 µg/mL) | 4 (≈ 1.36 µg/mL) | 8 (≈ 2.72 µg/mL)
9 | CCCCCCCNc1cncc(C(=O)NCc2ccccc2)n1 | 16 (≈ 5.22 µg/mL) | 16 (≈ 5.22 µg/mL) | 16 (≈ 5.22 µg/mL) | 16 (≈ 5.22 µg/mL) | 16 (≈ 5.22 µg/mL) | 16 (≈ 5.22 µg/mL) | 8 (≈ 2.61 µg/mL) | 16 (≈ 5.22 µg/mL) | 16 (≈ 5.22 µg/mL) | 16 (≈ 5.22 µg/mL) | 16 (≈ 5.22 µg/mL) | 8 (≈ 2.61 µg/mL) | 16 (≈ 5.22 µg/mL) | 16 (≈ 5.22 µg/mL)
10 | CCCCCCNc1nccnc1C(=O)NCc1ccccc1 | 1000 (≈ 312 µg/mL) | > 1000 | > 1000 | > 1000 | 1000 (≈ 312 µg/mL) | > 1000 | 1000 (≈ 312 µg/mL) | 1000 (≈ 312 µg/mL) | > 1000 | 1000 (≈ 312 µg/mL) | 1000 (≈ 312 µg/mL) | 1000 (≈ 312 µg/mL) | 1000 (≈ 312 µg/mL) | > 1000
11 | CCCCCNc1cnc(C(=O)NCc2ccccc2)cn1 | 16 (≈ 4.77 µg/mL) | 16 (≈ 4.77 µg/mL) | 32 (≈ 9.55 µg/mL) | 32 (≈ 9.55 µg/mL) | 32 (≈ 9.55 µg/mL) | 32 (≈ 9.55 µg/mL) | 16 (≈ 4.77 µg/mL) | 16 (≈ 4.77 µg/mL) | 32 (≈ 9.55 µg/mL) | 16 (≈ 4.77 µg/mL) | 16 (≈ 4.77 µg/mL) | 16 (≈ 4.77 µg/mL) | 16 (≈ 4.77 µg/mL) | 32 (≈ 9.55 µg/mL)
12 | CCCCCCCNc1cnc(C(=O)NCc2ccccc2)cn1 | 4 (≈ 1.31 µg/mL) | 4 (≈ 1.31 µg/mL) | 4 (≈ 1.31 µg/mL) | 8 (≈ 2.61 µg/mL) | 8 (≈ 2.61 µg/mL) | 8 (≈ 2.61 µg/mL) | 2 (≈ 0.653 µg/mL) | 4 (≈ 1.31 µg/mL) | 4 (≈ 1.31 µg/mL) | 4 (≈ 1.31 µg/mL) | 4 (≈ 1.31 µg/mL) | 4 (≈ 1.31 µg/mL) | 4 (≈ 1.31 µg/mL) | 4 (≈ 1.31 µg/mL)
13 | CCCCCCCCNc1cncc(C(=O)NCc2ccccc2)n1 | 16 (≈ 5.45 µg/mL) | 16 (≈ 5.45 µg/mL) | 16 (≈ 5.45 µg/mL) | 16 (≈ 5.45 µg/mL) | 16 (≈ 5.45 µg/mL) | 16 (≈ 5.45 µg/mL) | 16 (≈ 5.45 µg/mL) | 16 (≈ 5.45 µg/mL) | 16 (≈ 5.45 µg/mL) | 16 (≈ 5.45 µg/mL) | 16 (≈ 5.45 µg/mL) | 16 (≈ 5.45 µg/mL) | 16 (≈ 5.45 µg/mL) | 16 (≈ 5.45 µg/mL)
14 | CCCCCNc1nccnc1C(=O)NCc1ccccc1 | 1000 (≈ 298 µg/mL) | > 1000 | > 1000 | > 1000 | > 1000 | > 1000 | 1000 (≈ 298 µg/mL) | 1000 (≈ 298 µg/mL) | > 1000 | 1000 (≈ 298 µg/mL) | 1000 (≈ 298 µg/mL) | 1000 (≈ 298 µg/mL) | 1000 (≈ 298 µg/mL) | > 1000
15 | CCCCCCNc1cnc(C(=O)NCc2ccccc2)cn1 | 8 (≈ 2.5 µg/mL) | 4 (≈ 1.25 µg/mL) | 8 (≈ 2.5 µg/mL) | 8 (≈ 2.5 µg/mL) | 8 (≈ 2.5 µg/mL) | 8 (≈ 2.5 µg/mL) | 4 (≈ 1.25 µg/mL) | 8 (≈ 2.5 µg/mL) | 8 (≈ 2.5 µg/mL) | 4 (≈ 1.25 µg/mL) | 4 (≈ 1.25 µg/mL) | 8 (≈ 2.5 µg/mL) | 4 (≈ 1.25 µg/mL) | 8 (≈ 2.5 µg/mL)
16 | NNC(=O)c1ccncc1 [ISONIAZID] | 16 (≈ 2.19 µg/mL) | 16 (≈ 2.19 µg/mL) | 16 (≈ 2.19 µg/mL) | 32 (≈ 4.39 µg/mL) | 16 (≈ 2.19 µg/mL) | 16 (≈ 2.19 µg/mL) | 16 (≈ 2.19 µg/mL) | 16 (≈ 2.19 µg/mL) | 32 (≈ 4.39 µg/mL) | 16 (≈ 2.19 µg/mL) | 16 (≈ 2.19 µg/mL) | 16 (≈ 2.19 µg/mL) | 16 (≈ 2.19 µg/mL) | 16 (≈ 2.19 µg/mL)
